The text below walks through data of patent US20100035822A1, “PROLINE-RICH PEPTIDES, PHARMACEUTICAL COMPOSITION, USE OF ONE OR MORE PEPTIDES AND METHOD OF TREATMENT” (priority 2006, published 2010).

Data set [1] has as its system SK-N-AS cells (human neuroblastoma). As to the kind of experiment: Free intracellular Ca2+ concentration in SK-N-AS cells (fluo-3 AM, confocal microscopy). Type of data set: cell-based. As to the method:
In these experiments the variation in free intracellular calcium [Ca^2+]i concentration was measured in SK-N-AS cells (human neuroblastoma, ATCC No. CRL-2137) after addition of 1 μmolar of peptides SEQ ID NO 1 or SEQ ID NO 8, or of 1 μmolar captopril. Cells were kept in DMEM (Dulbecco Modified Medium), supplemented with 10% fetal bovine serum (FBS) and 1% non-essential amino acids, at 5% CO2 atmosphere, at 37° C., and 95% relative humidity. Cells were treated with trypsin, and replicated at adequate cell concentrations.
Measurements of variation in the concentration of free [Ca^2+]i were performed with a confocal microscope LSM 510 (Zeiss, Jena, Germany), as described by Martins et al., (Martins et al., Neuronal differentiation of P19 embryonal carcinoma cells modulates kinin B2 receptor gene expression and function. J. Biol. Chem. 280: 19576-19586, 2005). Approximately 5×10^4 SK-N-AS cells were plated on 60 mm plates 24 hours prior to measurement, and then treated with 4 μM fluo-3 AM (Invitrogen Corporation) in 0.5% DMSO and 0.1% non-ionic surfactant pluronic acid F-127 for 30 minutes at 37° C. Cells were washed with DMEM containing 10% FBS, and transferred to defined medium (5 μg/ml insulin, 30 μg/ml transferrin, 20 μM ethanolamine, 30 nM sodium selenite, 1 μM sodium pyruvate, 1% non-essential amino acids, 1 mM glutamine, 100 μg/ml penicillin, 100 μg/ml streptomycin, 10 mM HEPES pH 7.4 in DMEM). The fluorescent fluo-3 AM was excited at 488 nm, and the fluorescence measured at 526 nm.
Variations in the [Ca^2+]i were measured in non-stimulated cells, and in cells stimulated with peptides SEQ ID NO 1 or SEQ ID NO 8, or with captopril (Sigma Aldrich). Increase of fluorescence was monitored for 2 minutes, and images were acquired in 256×256 pixels every second. At the end of each experiment, 5 μM ionophore (4-Br-A23187) were added, followed by 10 mM EGTA, or 20 μM digitonin to determine maximum and minimum fluorescence, Fmax and Fmin respectively, as described by Grynkiewicz et al., (1985).
Intracellular calcium concentrations [Ca^2+]i, related to fluorescence (F) values obtained after addition of peptides SEQ ID NO 1 or SEQ ID NO 8, were calculated with the equation: [Ca^2+]=Kd(F−Fmin)/(Fmax−F), assuming Kd=450 nM for fluo-3 AM (Hallett et al., 1990).

The nature of data set [2]: Determination of Z-pro metabolites in mice urine. Type of data set: in vivo, mouse. To be noted: for Metabolites in the urine: mice, 0.91 mg/Kg intraperitoneally, urine collected after 24 hours, mass spectrometry. As to the method: In vivo hydrolysis of peptides SEQ ID NO 1, SEQ ID NO 4, SEQ ID NO 5, SEQ ID NO 8, and SEQ ID NO 15 was investigated in Swiss male mice weighing approximately 22-25 g, which had free access to food and water, and were kept under a light-dark cycle of 12 hour periods.
Groups of 10 mice were treated intraperitoneally with 0.91 mg/Kg of each proline rich oligopeptide per animal, diluted in 200 μl saline. Treated and control animals (not treated) were kept in metabolic cages, and their urine was collected after 24 hours. The urine was pre-purified in a reverse phase Sep-Pak C18 micro column (Waters), which had been previously equilibrated with solvent A (H2O/0.1% TFA). Samples were eluted with 60% solvent B (90% acetonitrile/10% solvent A), lyophilized, and resuspended in 1 ml deionized water to be centrifuged at 14.000 rpm for 5 minutes. The supernatant (500 μl) was fractionated in an analytic HPLC system. The gradient was 5-65% solvent B for 30 minutes, using a flow rate of 1 ml/min and monitoring at 214 nm. Fractions were lyophilized and ressuspended in acetonitrile/H2O (1:1), containing 0.2% formic acid, and were analyzed by mass spectrometry (Q-TOF-Pro). Urine fractions from control and treated animals were compared to determine the presence of metabolites originated from the peptides being tested.

The target of data set [3] is T1, argininosuccinate synthase (AsS) (Mus musculus, UniProt P16460).
T1 construct: Cytosolic and membrane fractions of the renal extract (100 mg/ml total protein) were applied to separate columns; from tissue; host or cells: Balb-c mouse kidney, cytosolic and membrane fractions
T1 sequence (P16460 1-412): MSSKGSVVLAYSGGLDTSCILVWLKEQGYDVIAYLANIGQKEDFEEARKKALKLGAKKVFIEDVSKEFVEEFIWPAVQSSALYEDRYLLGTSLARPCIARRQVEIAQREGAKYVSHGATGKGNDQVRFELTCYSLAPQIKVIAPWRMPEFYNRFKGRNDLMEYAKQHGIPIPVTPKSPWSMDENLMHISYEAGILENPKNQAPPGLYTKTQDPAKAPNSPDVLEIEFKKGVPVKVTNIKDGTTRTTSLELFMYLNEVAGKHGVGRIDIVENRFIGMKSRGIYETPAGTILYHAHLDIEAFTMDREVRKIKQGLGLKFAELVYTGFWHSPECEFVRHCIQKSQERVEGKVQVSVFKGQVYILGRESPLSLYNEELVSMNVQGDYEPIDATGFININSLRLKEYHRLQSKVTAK
As to the kind of experiment: Potentiation of argininosuccinate synthase activity (phosphate generated from ATP). The class given is biochemical. To be noted: AsS activated by SEQ ID NO 8. As to the method: Activation of the AsS enzyme of Example 3 by peptide SEQ ID NO 8 was quantified in vitro according to Hao et al. [Hao G., Xie L., Gross S. S. Argininosuccinate synthetase is reversibly inactivated by S-nitrosylation in vitro and in vivo. J. Biol. Chem., 279:36192-36200 (2004)]. This method is based on measuring the quantity of phosphate generated from ATP, when pyrophosphatase is added to the reaction medium. Since the activity of the pyrophosphatase relates directly to the enzymatic activity of the AsS, the quantity of generated pyrophosphate is a direct measurement of the AsS activity.
The AsS enzyme (1 μg) was added to the reaction mixture containing 20 mM Tris-HCl, pH 7.8, 2 mM ATP, 2 mM citrulline, 2 mM aspartate, 6 mM MgCl2, 20 mM KCl, and 0.2 units of pyrophosphatase in a final volume of 200 μL in 96 well microplates. Increasing quantities of the SEQ ID NO 8 peptide (0.5, 1 to 8 μM) were added, and samples were incubated at 37° C. for 60 minutes. The reaction was interrupted by the addition of 200 μL of ammonium molybdate buffer (10 mM ascorbic acid, 2.5 mM ammonium molybdate, 2% sulphuric acid). Resulting phosphate was determined in the samples by spectrophotometry (absorbance at 650 nm), using a standard curve obtained with inorganic phosphate.
The production rate of phosphate (enzymatic activity of the AsS) was activated up to approximately 2.5 fold upon addition of 2 μM peptide SEQ ID NO 8. […] Accessibility of endothelial and inducible nitric oxide synthase to the intracellular citrulline-arginine regeneration pathway. Biochem. Pharmacol. 69: 97-104, 2005].

The nature of data set [4]: Bioavailability / tissue distribution of 125I-labelled peptide in mice. Type of data set: in vivo, mouse. An excerpt: Peptide SEQ ID NO 8 was labeled with ^125I according to Greenwood and Hunter (Greenwood F C and Hunter W M. The preparation of ^125I-labelled human growth hormone of high specific radioactivity. J. Biochem., 89:114-123, 1963), with modifications [Biscayart P L, Paladini A C, Vita N, Roguin L P. Preparation of ^125I-labeled human growth hormone of high quality binding properties endowed with long-term stability. J. Immunoassay, 10, 37-56, 1989; Ribela et al., Protein Exp. Purif., 18(2):115-200, 2000). Under constant shaking, 5 μg of the synthetic SEQ ID NO 8 peptide in PBS were mixed with 1 mCi of ^125I, and 0.8 μg of chloramines T. After 5 minutes, 1 μg metabisulfite and 200 μg potassium iodine were added to finalize the labeling reaction. Purification of the labeled product was performed by reverse-phase chromatography in a disposable micro-column (Sep-Pak C18, Waters) as described by Christophe et al. [Christophe et al., The synthetic peptide trp-lys-tyr-met-val-met-NH2 specifically activates neutrophils through FPRL1/lipoxin A4 receptors and is an agonist for the orphan monocyte-expressed chemoattractant receptor FPRL2. J. Biol. Chem. 276: 21585-21593, 2001]. The reaction product was diluted in three volumes of destined water, and applied to the column that had been pre-treated with destined water. Potassium iodine (5 mM, 20 mL) was added, and the column was washed twice with 20 mL distilled water. The labeled peptide was eluted with 2 mL 100% methanol, and 5 μl aliquots were analyzed in the gamma radiation counter from Nuclear Chicago. […]
The animals were anesthetized after 1, 5, 15, 30, 45, 60, 120 and 180 min after injection, and killed by cervical dislocation, and organs (heart, spleen, liver, kidney, intestines, stomach, thyroid, testicles, and brain) were removed, flushed free of blood with 0.9% saline, and weighed. The radioactivity of each organ was determined in a gamma counter. […]
The dose percentage present in each organ was determined, using an administered dose standard. Radioactivity values were registered, given in dose percentage/mg of tissue.

Entries after “also recorded” stand apart in the source; their conditions may differ. Square brackets hold non-standard residues; d marks the D form. Ends that are not written are not given here. Peptide text beside a SMILES is read from it. pGlu = O=C1CC[C@@H](C(=O)O)N1

On to <EKWAP [SEQ ID NO 1], for which the “time from the peak until the [Ca2+]i plateau” value in data set [1] came out at 20 s. The “change of intracellular [Ca2+]i” value in data set [1] (1 μM) is “Increase”. Besides, the “[Ca2+]i response peak” value in data set [1] (immediately after addition of the peptide) is recorded as “approximately 350 nM”. Further, the “form in which the peptide is excreted in urine” value in data set [2] (mice injected intraperitoneally) is given as “exception”. For the same compound, the “Metabolites in the urine” value in data set [2] was “<EKW”.
Consider `CC[C@H](C)[C@H](NC(=O)[C@@H]1CCCN1C(=O)CNC(=O)[C@H](CC(=O)O)NC(=O)[C@@H]1CCC(=O)N1)C(=O)N1CCC[C@H]1C(=O)N1CCC[C@H]1C(=O)O` [SEQ ID NO 4, <EDGPIPP] ([pGlu]DGPIPP-OH), for which the “Metabolites in the urine” value in data set [2] is reported as “<EDGPIPP”.
`CC[C@H](C)[C@H](NC(=O)[C@H](CCC(N)=O)NC(=O)[C@@H]1CCCN1C(=O)[C@H](CCCNC(=N)N)NC(=O)[C@@H]1CCCN1C(=O)[C@H](Cc1c[nH]c2ccccc12)NC(=O)[C@@H]1CCC(=O)N1)C(=O)N1CCC[C@H]1C(=O)N1CCC[C@H]1C(=O)O` [SEQ ID NO 5, <EWPRPQIPP]: the “Metabolites in the urine” value in data set [2] (0.91 mg/kg) is “<EWPRPQIP; also recorded: <EWPRP; also recorded: <EWPRPQIPP”.
Regarding <EWGRPPGPPIPP [SEQ ID NO 14], the “Metabolites in the urine” value in data set [2] is “<EWGRPPGPPIPP”.
In the case of `CC(N)(CC(=O)O)C(=O)O` (racemic) [MDLA, α-methyl-DL-aspartic acid, reference compound], the “effect of the inhibitor on AsS activation by peptide SEQ ID NO 8” value in data set [3] is listed as “completely blocked; also recorded: completely inhibited”.
As for “SEQ ID NO 8/^125I: synthetic oligopeptide SEQ ID NO 8 labeled with ^125I ([pGlu]NWPHPQIPP; also: 125I label, place not given here)”, the “kidney concentration relative to other tissues per gram of tissue” value in data set [4] is recorded as “higher than 10 fold”. Further, in data set [4] (kidney), the “share of the concentration of the injected dose remaining in the kidneys” value was “approximately 15%” and the “time the radioactivity remains in the kidneys” value is above 3 h.
